Test results from the supplement of paper PMC10307832.

Columns and labels:
Experiment in all cases: relative viability (nuclei count vs DMSO), 5 days (fraction); higher = more cells survive
QS11 + Navitoclax = compound: C1CC2=C(C1)C=C(C=C2)OC3=NC(=C4C(=N3)N(C=N4)CC5=CC=C(C=C5)C6=CC=CC=C6)N[C@@H](CC7=CC=CC=C7)CO [QS11] + CC1(C)CCC(c2ccc(Cl)cc2)=C(CN2CCN(c3ccc(C(=O)NS(=O)(=O)c4ccc(N[C@H](CCN5CCOCC5)CSc5ccccc5)c(S(=O)(=O)C(F)(F)F)c4)cc3)CC2)C1 [Navitoclax] (partner 0.5 µM)
Outline: (§1)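 Dosing by pin tool came one day after lung cancer cell lines were seeded in 1536-well plates, using either one drug or a fixed anchor-drug dose plus five library-drug doses (not always all listed) in √10 steps. After 5 days, nuclei were counted on 4× images. Relative viability is treated-well nuclei count divided by vehicle-well nuclei count, and values are medians of duplicate plates.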

[1] = compound: C[As](C)SC[C@H](NC(=O)CC[C@H](N)C(=O)O)C(=O)NCC(=O)O [Darinaparsin] + C[C@]1(O)C[C@@H](c2nc(-c3ccc4ccc(-c5ccccc5)nc4c3)c3c(N)nccn32)C1 [Linsitinib] (partner 1 µM)
Outline: as §1

[2] = compound: C[As](C)SC[C@H](NC(=O)CC[C@H](N)C(=O)O)C(=O)NCC(=O)O [Darinaparsin] + CC(=O)Nc1cccc(-n2c(=O)n(C3CC3)c(=O)c3c(Nc4ccc(I)cc4F)n(C)c(=O)c(C)c32)c1 [Trametinib] (partner 0.02 µM)
Outline: as §1

AZ628 + OSI-027 = compound: CC1=C(C=C(C=C1)NC(=O)C2=CC(=CC=C2)C(C)(C)C#N)NC3=CC4=C(C=C3)N=CN(C4=O)C [AZ628] + COc1cccc2cc(-c3nc([C@H]4CC[C@H](C(=O)O)CC4)n4ncnc(N)c34)[nH]c12 [OSI-027] (partner 0.5 µM)
Outline: as §1

Cell Line	relative viability (QS11 + Navitoclax; first compound 0.08 µM)	relative viability (QS11 + Navitoclax; first compound 0.253 µM)	relative viability (QS11 + Navitoclax; first compound 0.8 µM)	relative viability (QS11 + Navitoclax; first compound 2.53 µM)	relative viability (QS11 + Navitoclax; first compound 8 µM)	relative viability ([1]; first compound 0.08 µM)	relative viability ([1]; first compound 0.8 µM)	relative viability ([1]; first compound 2.53 µM)	relative viability ([1]; first compound 8 µM)	relative viability ([2]; first compound 0.08 µM)	relative viability ([2]; first compound 0.8 µM)	relative viability ([2]; first compound 2.53 µM)	relative viability ([2]; first compound 8 µM)	relative viability (AZ628 + OSI-027; first compound 0.08 µM)	relative viability (AZ628 + OSI-027; first compound 0.253 µM)	relative viability (AZ628 + OSI-027; first compound 0.8 µM)	relative viability (AZ628 + OSI-027; first compound 2.53 µM)	relative viability (AZ628 + OSI-027; first compound 8 µM)
LXF-289	0.98	0.948	0.715	0.859	0.619	0.986	0.995	0.796	1.04	0.768	0.667	0.677	0.697	0.812	0.763	0.736	0.74	0.434
NCI-H1792		0.744	0.5	0.6	0.479	0.571	0.488	0.402	0.536	0.513	0.52		0.557	0.735	0.516	0.474	0.428	0.233
LU99A	0.867	0.841	0.937	0.847	0.592	0.618	0.633	0.475	0.581	0.529	0.62	0.545	0.55	0.271	0.313	0.268	0.288	0.239
NCI-H1666	1.04	0.868	0.932	0.55	0.472	0.996	0.884	0.994	0.931	1.03	0.845	0.858	0.912	0.827	0.789	0.676	0.744	0.656
LOU-NH91	0.626	0.572		0.657	0.723	0.962	0.92	0.952	0.946	0.848	0.747	0.851	0.822	0.72	0.712	0.651	0.664	0.569
RERF-LC-KJ	0.996	1.31	0.98	0.896	0.725	1.03	0.979	0.876	0.946	0.933	0.933	0.93	0.817	0.53	0.523	0.528	0.462	0.458
NCI-H2085	1.18	1.17	1.08	1.29	1.41	0.935	0.864	0.889	1.05	0.469	0.477	0.586	0.618	0.913	0.754	0.803	0.667	0.332
NCI-H1793	0.393	0.482	0.38	0.436	0.404	0.919	1.01	0.769	1.22	0.427	0.482		0.526	0.355	0.226	0.252	0.247	0.193
HCC-366	1.05	1.08		0.721	0.414	0.969	0.609	0.427	1.06	0.393		0.336	0.378	0.895	0.63	0.662	0.62	0.209
NCI-H596	0.94	0.961	1.07	0.969	1.24	1.3	0.934	0.928	1.27	0.762	0.748	0.856	0.755	0.715	0.67	0.818	0.721	0.528
NCI-H2126	0.867	0.796	0.67	0.823	0.62	0.815	0.756	0.589	0.803	0.629	0.563	0.575	0.542	0.793	0.655	0.651	0.728	0.594
EMC-BAC-2	1.14	1.28	0.896	1.12	0.654	0.862	0.758	0.773	0.965	0.909	0.802	1.01	0.887	0.397	0.425	0.477	0.436	0.448
H3255	0.552	0.587		0.55	0.704	0.995	0.96	0.86	1.16	0.595	0.812	0.574	0.62	0.64	0.484	0.564	0.584	0.323
NCI-H838	1.11	1.1	0.755	1.2	1.02	1.28	0.962	0.997	1.24	0.54	0.458	0.504	0.666	0.487	0.413	0.303	0.325	0.354
NCI-H2009	1.13	1.19	0.972	1.02	0.981	1.29	1.18	1.13	1.15	0.283	0.246	0.196	0.27	0.537	0.452	0.287	0.327	0.243
HCC-15	0.728	0.795		0.877	0.782	0.878	0.881	0.78	1.01	0.409	0.321	0.27	0.415	0.751	0.582	0.461	0.433	0.236
NCI-H1395		1.09	1.31	1.45	1.02	1.01	0.995	0.97	0.991	1.24	0.954	0.957	0.94	0.652	0.544	0.625	0.56	0.554
CAL-12T	1.18	1.39	1.15	1.08	1.14	1.08	0.757	0.686	0.956	0.333	0.376	0.383	0.306	0.891	0.572	0.408	0.345	0.267
